Test [1] concerns the target T1, Carbonic anhydrase (Helicobacter pylori (strain ATCC 700392 / 26695) (Campylobacterpylori), UniProt O24855).
T1 sequence (O24855 whole entry): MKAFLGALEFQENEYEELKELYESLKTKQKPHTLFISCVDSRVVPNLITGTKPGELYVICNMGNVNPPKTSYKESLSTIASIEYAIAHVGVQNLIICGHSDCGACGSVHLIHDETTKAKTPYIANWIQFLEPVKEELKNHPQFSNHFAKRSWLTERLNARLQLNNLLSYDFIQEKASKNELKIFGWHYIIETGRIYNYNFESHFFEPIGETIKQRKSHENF
Description: Inhibition of Helicobacter pylori recombinant carbonic anhydrase by stopped-flow CO2 hydrase assay

Test [2] addresses Carbonic anhydrase 1 (Homo sapiens, UniProt P00915).
Description: Inhibition of human recombinant carbonic anhydrase 1 by stopped-flow CO2 hydrase assay

The record followed here is ChEMBL document CHEMBL1138198, “Carbonic anhydrase inhibitors: DNA cloning and inhibition studies of the alpha-carbonic anhydrase from Helicobacter pylori, a new target for developing sulfonamide and sulfamate gastric drugs” (J Med Chem, 2006).

Carbonic anhydrase 1, sequence (P00915 whole entry): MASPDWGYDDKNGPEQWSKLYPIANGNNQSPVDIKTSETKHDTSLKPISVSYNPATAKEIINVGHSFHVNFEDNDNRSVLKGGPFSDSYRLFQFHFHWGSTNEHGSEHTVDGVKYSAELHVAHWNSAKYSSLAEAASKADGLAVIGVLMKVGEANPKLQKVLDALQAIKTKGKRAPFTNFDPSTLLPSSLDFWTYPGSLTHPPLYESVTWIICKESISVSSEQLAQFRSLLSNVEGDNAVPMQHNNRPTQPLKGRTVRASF

In turn, `Nc1ccc(S(=O)(=O)NCCc2ccc(S(N)(=O)=O)cc2)cc1` returned a Ki in test [1] of 114 nM.

For the compound `CC(C)(C)c1ccc(S(=O)(=O)Nc2cccc(S(N)(=O)=O)c2)cc1`, the figures for the Ki in test [2] and in test [1] were 9620 nM and 318 nM, respectively.

Regarding `CC(C)(C)c1ccc(C(=O)Nc2cccc(S(N)(=O)=O)c2)cc1`, the figures for the Ki in test [2] and in test [1] were 10800 nM and 316 nM, respectively.

For the compound `CC(C)(C)c1ccc(S(=O)(=O)CCNc2ccc(S(N)(=O)=O)cc2)cc1`, the values for the Ki in test [2] and in test [1] were 12000 nM and 27 nM, respectively.

The compound `Nc1ccc(S(=O)(=O)Nc2nnc(S(N)(=O)=O)s2)cc1` returned an inhibitory constant (Ki) in test [1] of 268 nM.

On to `CC(C)(C)c1ccc(S(=O)(=O)Nc2nnc(S(N)(=O)=O)s2)cc1`, for which the Ki in test [2] is 338 nM; in test [1], 12 nM.

For the compound `NS(=O)(=O)c1ccc(S(=O)(=O)Nc2cccc3c(Cl)c[nH]c23)cc1`, the Ki in test [1] came to 413 nM.

Compound `NCc1ccc(S(N)(=O)=O)cc1` [MAFENIDE] came in with a Ki in test [1] of 873 nM.

`CC(C)(C)c1ccc(C(=O)NCc2ccc(S(N)(=O)=O)cc2)cc1`: the inhibition constant (Ki) in test [2] came to 13300 nM; in test [1] it was 62 nM.

Take `Nc1ccc(S(N)(=O)=O)cc1Br`: affinity in test [1] was put at a Ki of 452 nM.

In turn, `Nc1ccc(S(N)(=O)=O)cc1F` showed a Ki in test [1] of 1230 nM. Compared with the last compound, the Ki is about 2.7-fold higher.

Take `CC(C)(C)c1ccc(C(=O)Nc2nnc(S(N)(=O)=O)s2)cc1`: the Ki in test [2] is 541 nM; in test [1], 13 nM.

With `CC(C)(C)c1ccc(S(=O)(=O)CNc2ccc(S(N)(=O)=O)cc2)cc1`, the Ki in test [2] was found to be 12100 nM; in test [1], 31 nM.

As for `NS(=O)(=O)c1ccc(C(=O)O)cc1` [CARZENIDE], affinity in test [1] was put at a Ki of 1050 nM.

Consider `CC(C)(C)c1ccc(C(=O)Nc2ccc(S(N)(=O)=O)cc2)cc1`, for which the Ki in test [2] was 14200 nM; in test [1], 79 nM.

`Nc1ccc(S(=O)(=O)NCc2ccc(S(N)(=O)=O)cc2)cc1` showed a Ki in test [1] of 131 nM.

The compound `Nc1ccc(S(N)(=O)=O)cc1Cl` returned an inhibitory constant (Ki) in test [1] of 378 nM.

As to `CC(C)(C)c1ccc(S(=O)(=O)Nc2ccc(S(N)(=O)=O)cc2)cc1`, the Ki in test [2] turned out to be 13000 nM; in test [1], 60 nM.

For the compound `CC(C)(C)c1ccc(C(=O)Nc2ccccc2S(N)(=O)=O)cc1`, the Ki is 12300 nM in test [2] and 539 nM in test [1].

Regarding `CCN[C@H]1CN(CCCOC)S(=O)(=O)c2sc(S(N)(=O)=O)cc21` [BRINZOLAMIDE], the affinity in test [1] corresponds to a Ki of 210 nM.

Consider `Nc1ccc(S(N)(=O)=O)cc1I`, for which the Ki in test [1] was found to be 510 nM.

As to `Cc1ccc(S(N)(=O)=O)cc1` [P-TOLUENESULFONAMIDE], the Ki in test [1] came out at 450 nM.

In the case of `CC(C)(C)c1ccc(C(=O)NCCc2ccc(S(N)(=O)=O)cc2)cc1`, the inhibitory constant (Ki) in test [2] stood at 12400 nM; in test [1], 51 nM.

In the case of `Cn1nc(S(N)(=O)=O)sc1=N`, in test [1], the affinity corresponds to a Ki of 549 nM.

Turning to `Nc1nccc(Nc2ccc(S(N)(=O)=O)cc2)n1`, affinity in test [1] was put at a Ki of 84 nM.

`CC(C)(C)c1ccc(S(=O)(=O)Nc2ccccc2S(N)(=O)=O)cc1`: the Ki in test [2] amounted to 14700 nM; in test [1] it was 640 nM.
